Laboratory results as given in patent publication US5032109A, “Electrolytic transdermal delivery of polypeptides” (Drug Delivery Systems Inc., priority 1989, dated 1991).
Structures can show the parent of a compound that is named as a salt.

What was measured:
[1] = from Herkovits et al. 1978, cited from earlier work; for Setschenow constant, for --CH2--: average hydrophobic group; for Setschenow constant, for peptide: average peptide group; for Setschenow constant, sum: peptide plus hydrophobic; for -F.° (free energy of transfer): transfer from water to water plus cosolvent
[2] = Electrical conductivity of urine in diabetes insipidus volunteers wearing Pitressin patches (Model Example 2); type: in vivo, human; conditions: powered large patch, 300 units Pitressin, five days
Description: Six adult male volunteers each having been diagnosed as having diabetes insipidus are tested. Three are fitted with the large-size human patch, as in Example 2, and the three controls are fitted with drug-loaded, identical patches without batteries.
The drug reservoirs of the large electrolytic patches contain 15 ml (300 units) of Pitressin (Parke-aDavis Co., Morris Plains, N.J.). The return reservoir contains 0.9 percent saline buffered to pH 7.2 with ammonium dihydrogen phosphate.
Urine samples are taken from each subject three times per day for five days.

[3] = Total urine output of beagle dogs wearing lypressin electrolytic patches (Model Example 1); type: in vivo; conditions: four beagle dogs, powered patch, 10 ua/cm^2, ten days, Diapid 0.185 mg lypressin/ml
Description: Eight beagle dogs are employed. All of them are clipped on the back, washed with castille soap, and fitted with the small animal electrolytic patches of Example 1, four of them without batteries.
The drug reservoir of each patch contains 6 ml. Diapid 50 USP, 0.185 mg lypressin/ml. The return reservoir contains 0.9 percent saline. A current regulator is set to deliver 10 ua/cm^2.
Over a period of ten days the total urine output of each dog is measured by standard techniques.

[4] = set-up: species or system human; conditions: in vivo
Description: Ten adult female volunteers, diagnosed as having hypertension, are chosen for this experiment. All are fitted with the large-size electrolytic transdermal patch, as in Example 2. […] Five control patches have no batteries.

[5] = Blood pressure of hypertensive volunteers wearing atriopeptin patches (Model Example 3); type: in vivo, human; conditions: hypertensive female volunteers, powered patches, 0.01M atriopeptin in 0.1M sodium perchlorate, about 10 ua/cm^2
Description: Ten adult female volunteers, diagnosed as having hypertension, are chosen for this experiment. All are fitted with the large-size electrolytic transdermal patch, as in Example 2. […] Five control patches have no batteries. […] The blood pressure of the ten subjects is measured four times a day.

Compound	Setschenow constant, for --CH2-- [1]	Setschenow constant, for peptide [1]	Setschenow constant, sum [1]	-F.° (free energy of transfer) [1] [cal/mo]	electrical conductivity of the urine versus control subjects (patches without batteries) [2]	average total urine volume versus control dogs (patches without batteries) [3]	drug delivered per hour [4]	average blood pressure versus controls (patches without batteries) [5]
C1COCCO1 [Dioxane]	-0.013	+0.029	0.016	22	–	–	–	–
CCO [Ethanol]	-0.014	+0.037	0.023	31	–	–	–	–
N=C(N)N [Guanidine hydrochloride, guanidine hydrochloride]	-0.027	-0.061	-0.088	-120	–	–	–	–
NC(=O)CC[C@@H]1NC(=O)[C@H](Cc2ccccc2)NC(=O)[C@H](Cc2ccc(O)cc2)NC(=O)[C@@H](N)CSSC[C@@H](C(=O)N2CCC[C@H]2C(=O)N[C@@H](CCCN=C(N)N)C(=O)NCC(N)=O)NC(=O)[C@H](CC(N)=O)NC1=O [Pitressin, vasopressin]	–	–	–	–	significantly higher	–	–	–
[I-].[K+] [Potassium iodide]	0.01	-0.083	-0.073	-100	–	–	–	–
CCCNC(N)=O [Propylurea]	–	–	-0.047	-64	–	–	–	–
[Br-].[Na+] [Sodium bromide]	0.025	-0.037	-0.012	-16	–	–	–	–
CCCC(=O)[O-].[Na+] [Sodium butyrate]	–	–	-0.038	-51	–	–	–	–
[Cl-].[Na+] [Sodium chloride]	0.033	-0.037	-0.004	-5	–	–	–	–
[I-].[Na+] [Sodium iodide]	0.01	-0.087	-0.077	-105	–	–	–	–
[O-][Cl+3]([O-])([O-])O [Sodium perchlorate]	0.021	-0.097	-0.076	-104	–	–	–	–
CCC(=O)[O-].[Na+] [Sodium proprionate]	–	–	-0.017	-23	–	–	–	–
NC(N)=O [Urea]	-0.01	-0.018	-0.028	-38	–	–	–	–
NCCCC[C@H](NC(=O)[C@@H]1CCCN1C(=O)[C@@H]1CSSC[C@H](N)C(=O)N[C@@H](Cc2ccc(O)cc2)C(=O)N[C@@H](Cc2ccccc2)C(=O)N[C@@H](CCC(N)=O)C(=O)N[C@@H](CC(N)=O)C(=O)N1)C(=O)NCC(N)=O [lypressin]	–	–	–	–	–	significantly lower	–	–
atriopeptin	–	–	–	–	–	–	about 200 nanograms of drug per hour	significantly lower
